These results are taken from US5380759A, “Methyl N-[6-(3,4,5-trimethoxybenzloxy)imidazo[1,2-b]pyridazin-2-zyl]carbamate used to treat leukemia” (priority 1987, dated 1995).

Assay [1] deals with P388/MTX. As to the kind of experiment: In vivo activity against drug resistant tumour P388/MTX. Details: species or system mouse. To be noted: optimum dose 7.5 mg/kg. On the procedure:
(§1) CD2-F1 mice, of the same sex, weighing within a 3 gram range surrounding 20 g, are used for this test. Control and test animals are injected intraperitoneally with a suspension of 10^6 viable P388/O tumour cells on day 0. In each test several dose levels which bracket the LD20 for the compound are evaluated; each dose level group contains 6 animals. The test compounds are prepared either in physiologic saline containing 0.05% Tween 80 or distilled water containing 5% dextrose and are administered intraperitoneally on days 1,5 and 9 relative to tumour implant. Doses are on a mg/kg basis according to individual animals' body weights. The day of death for each animal is recorded and the median day of death identified for each group. The difference between the median survival time for treated and control groups is expressed as a percentage increase in life span (% ILS).
(§2) E. Activity Against Drug-Resistant Tumours
(§3) Using a similar procedure to the Lymphocytic Leukaemia P388/O test, the compound of Example 1 was evaluated against P388/O tumours which had been made resistant to the following standard, clinically used anti-tumour agents: […]

Assay [2] deals with strains of P388. As to the kind of experiment: In vivo activity against strains of P388 resistant to major clinically used anti-tumour agents. Details: species or system mouse. The settings on record: resistant to cyclophosphamide, methotrexate, actinomycin D, vincristine, adriamycin, 5-fluorouracil, cis-platinum, bis-chloronitrosourea and amsacrine. The method, then:
as §1, §2, §3

Assay [3] concerns P388 D1 cells. The assay is described as follows: P388 D1 colony-forming assay. The format is cell-based. The settings on record: Mus musculus, P388D1; 24 h exposure, 14 days colony growth; read-out: IC50 colony formation. On the procedure: B) P338D1 Colony-forming Assay
In this assay, cells from an in vitro-adapted line of the mouse lymphoid neoplasm, P388 are first exposed to serially diluted concentrations of test compound over a 24 hour period in culture. Thereafter, the ability of such treated cells to form discrete colonies over a 14 day period after resuspension in a semi-solid drug-free medium is determined.
Initially cells in log growth are plated into individual 25 cm^2 tissue culture flasks each containing a final volume of 5 mls of Hepes buffered RPMI 1640 culture medium supplemented with 10 percent foetal calf serum, antibiotics and test compound. All compounds are formulated initially at appropriate concentrations in DMSO, 25 microliters of which is then added to each flask. All compounds are evaluated at concentrations ranging serially in four fold decrements from a top concentration some four fold greater than that already known to inhibit the proliferation of these cells by about 80 to 90 percent in the primary proliferative assay.
After 24 hrs exposure to the test compound the cells are counted and a known number of live cells transferred to a 15 ml centrifuge tube to which 4 mls of a 0.25 percent low temperature gelling agarose solution in complete RPMI tissue culture medium is then added. After 13 days incubation at 37° C., 1 ml of 1% p-Iodonitrotetrazolium violet is added to the top of each tube and allowed to permeate through the agarose for a further 24 to 48 hrs. This dye is metabolised by living cells to produce an insoluble red crystalline product which facilitates counting of the colonies. Samples are taken from each tube and the number of colonies containing a minimum of 50 cells is determined. The concentration of compound necessary to inhibit colony formation by 50 percent relative to that of control cells incubated under identical conditions but in the absence of the test compound is determined.

Assay [4] deals with L1210. As to the kind of experiment: In vivo activity against murine tumour L1210. Details: species or system mouse.
For assay [5], the system named is P388/ADR. The assay is described as follows: In vivo activity against drug resistant tumour P388/ADR. To be noted: optimum dose 10.0 mg/kg. Details: species or system mouse. On the procedure: as §1, §2, §3
The subject of assay [6] is P388/O tumour. As to the kind of experiment: Lymphocytic leukaemia P388/O test. The format is in vivo, mouse. The settings on record: 10 mg/kg i.p. days 1, 5 and 9. On the procedure: C. Lymphocytic Leukemia P388/O Test
as §1

Assay [7] concerns B16. The assay is described as follows: In vivo activity against murine tumour B16. Details: species or system mouse. The method, then:
as §1
G. In vivo activity of the compound of Example 1 against murine tumours
Using a similar procedure to the Lymphocytic Leukaemia P388/O test the compound of Example 1 was evaluated against the murine tumours B16, L1210 and M5076. A suspension of 10^6 tumour cells is implanted intraperitoneally into control and test animals on day zero. B16 tumour cells are administered intraperitoneally as a 1:10 Brei of cells on day zero. […] The day of death for each animal is recorded and the %ILS (percentage increase in life-span) calculated.

The test system of assay [8] is HCT-116 human colon carcinoma cells. The assay is described as follows: In vitro activity against human tumour cell line HCT-116 (proliferation). The format is cell-based. The settings on record: HCT-116, 96 h, MTT, read-out: IC50. The method, then: Cells from the human tumour cell lines DLD-1, HCT-116, WiDr and A549 are exposed to serially diluted concentrations of test compounds over a 96 hour period in culture. The ability of such cells to proliferate over the test period is determined.
Cells in log growth are plated into 96 well multiwell tissue culture dishes in 100 μl/well of RPMI 1640 culture medium supplemented with 10% foetal calf serum, antibiotics and test compound. All compounds are formulated initially at appropriate concentrations in DMSO, the final concentrations in this solvent being twenty times that required in the plate. A final 1 in 10 dilution in complete medium is then made before adding 100 μl to each well of the plate. All compounds are evaluated at concentrations ranging serially in four fold decrements from a top concentration some four fold greater than that already known to inhibit the proliferation of cells from the mouse lymphoid neoplasm, P388D1 by about 80 to 90 percent in a primary proliferative assay.
After 96 hours the proliferation of cells exposed to test compound is compared with control untreated cells by one of two methods:
b) 20 μl of MTT (5 mg/ml in PBS) is added to each well. After an incubation period of 4 hours the medium from each well is aspirated and replaced with 200 μl DMSO to dissolve the formazan crystals formed. Absorbances are read by an ELISA plate spectrophotometer at a wavelength of 540 nm. The IC50 is defined as that concentration of drug which decreases absorbance to 50% of that in control (drug-free) cultures. This method is used for the WiDr, HCT-116 and A549 cell lines.

The test system of assay [9] is P388/AMSA. The assay is described as follows: In vivo activity against drug resistant tumour P388/AMSA. Details: species or system mouse. To be noted: optimum dose 5.0 mg/kg.
The test system of assay [10] is P388/Cis--Pt. As to the kind of experiment: In vivo activity against drug resistant tumour P388/Cis-Pt. Details: species or system mouse. The settings on record: optimum dose 10.0 mg/kg.
Assay [11] concerns P388/VCR. The assay is described as follows: In vivo activity against drug resistant tumour P388/VCR. Details: species or system mouse. To be noted: optimum dose 12.5 mg/kg. On the procedure:
as §1, §2, §3

Assay [12] relates to P388/CPA. The assay is described as follows: In vivo activity against drug resistant tumour P388/CPA. Details: species or system mouse. The settings on record: optimum dose 12.5 mg/kg.

As to `COC(=O)Nc1cn2nc(OCc3cc(OC)c(OC)c(OC)c3)ccc2n1` [Example 1, Methyl N-[6-(3,4,5-trimethoxybenzyloxy)imidazo[1,2-b]pyridazin-2-yl]carbamate], the “60 Day Survivors” value in assay [1] is 1/6; in [5], 0/6; in [6], 2/6; in [9] ((day 31)) it was 4/6; in [10], 1/6; in [11], 3/6. In addition, in assay [12], the “60 Day Survivors” value is reported as 1/6. In addition, the “% ILS” value in assay [1] is on record as “+100%”; in [5], “+90%”; in assay [9] it was “+134%”; in assay [10] it was “+50%”; in assay [11], “+145%”; in assay [12], “+150%”. In addition, the “activity in vivo against resistant strains of P388” value in [2] is given as “good activity in vivo”. Also, the values for the 50% inhibitory concentration (IC50) in assay [3] and in assay [8] were 13.2 nM and 9.2 nM, respectively. Moreover, the “Mean % ILS (±SEM)” value in [4] (10 mg/kg i.p. days 1, 5 and 9, 2 expts) is 134 (±72) %; in [7] (5 mg/kg i.p. days 1, 5 and 9, 3 expts) it was 69 (±4) %. Also, the “activity in vivo against L1210 leukaemia” value in [4] (in words) is “good activity”. Moreover, the “30 Day survivors” value in [6] is given as 6/6. Also, the ILS at 10 mg/kg in [6] (Mus musculus, P388, ip) worked out at 300%. The “activity in vivo against B16 melanoma” value in assay [7] (in words) is “good activity”.
